Results reported in US20120142731A1, “METHODS OF INHIBITING VIRAL INFECTION” (Functional Genetics, Inc., priority 2007, published 2012).

Tests used:
[1] = tested on: cowpox; assay: organism not typed; type: cell-based; settings: Vero
[2] = tested on: HCV; type: cell-based, Hepatitis C virus
[3] = tested on: N5A of HCV; type: cell-based, Hepatitis C virus; settings: 2.5 uM
[4] = tested on: HBV; assay: HBV primary assay in HepG2 cells (virion DNA); type: cell-based, Hepatitis B virus; settings: blinded NIAID study
[5] = tested on: PRRS virus; assay: PRRS inhibition in primary porcine lung alveolar macrophages; type: cell-based, porcine reproductive and respiratory syndrome (PRRS) virus; settings: administration 72 hours post infection
Description: As noted above, important mammalian hosts treatable by this family of compounds include not only humans, but veterinarily and commercially important animals. Although monkeys, dogs, cats, mice, rats, horses, rabbits, cattle, sheep and goats are all important hosts to be treated for viral infection, pigs may be the dominant commercial animal, worldwide. The United States Department of Agriculture has characterized PRRS virus as a significant, worldwide, agricultural concern related to animal health and causes large economic losses to producers, and labeled a biosecurity threat. (Project 2008-2017).

[6] = tested on: Venezuelan Equine Encephalomyelitis (VEE); type: cell-based; settings: 25 uM, administered 3 days post-infection
[7] = tested on: HBV; assay: Viral release assay, HBV from Huh1 cells; type: cell-based, Hepatitis B virus
[8] = tested on: replicon formation; type: cell-based
[9] = Stability to light; type: physicochemical
Description: R24 is subject to straight forward synthesis. […] The range of carriers available, is therefore, quite large. As a consequence, the compositions and methods of this invention embrace the FGI-104 compounds as neat solids, as pharmaceutically suitable preparations, in a pharmaceutically acceptable carrier of a variety of types. Compositions of the present invention may further comprise a pharmaceutical composition comprising a therapeutically effective amount of any of the small molecules (or combinations of small molecules) described above together with other materials, such as a suitable carrier, excipients, etc., for administration to a human or animal experiencing a viral infection or at risk of a viral infection. Such pharmaceutical compositions may be in solid, gel or liquid form and may be administered as appropriate to an individual IV, IM, IP or parenterally, topically, subcutaneously, orally, or through mucosal surfaces and routes (including, for example, rectal and vaginal suppositories). The exact dosage corresponding to a therapeutically effective amount will vary from mammal to mammal and virus to virus. […]

[10] = 28 day course of administration; cited from earlier work
[11] = in vitro; settings: African green monkey
[12] = mammalian models; oral, IP, IV administration; cited from earlier work
[13] = tested on: HCV; assay: Viral release assay, HCV from Huh1 cells
[14] = tested on: HIV-1; assay: HIV-1 luciferase assay in infected MT-4 cells
[15] = tested on: malaria; settings: cited from earlier work

| SMILES | EC50 [1] [µM] | inhibition of the virus (luciferase signal) [2] [%] | signal protein N5A of HCV in protein blot [3] | activity as measured by virion DNA [4] | effectiveness as reflected by the EC90 value [5] | inhibition of VEE [6] | preventing viral release [7] | inhibition of replicon formation [8] | stability to light [9] | chromosomal instability [10] | CC50 [11] [µM] | tolerability [12] | preventing viral release [13] | EC50 ([14]; Human immunodeficiency virus 1, MT4, 72 h) [µM] | luciferase detection ([14]; MT-4 cells, relatively low dose, 72 hours post infection) | efficacy against chloroquinoline-resistant malarial strains ([15]; chloroquinoline-resistant strains) | efficacy against the parasite based disease (malaria) ([15]; compared with chloroquinoline) |
| --- | --- | --- | --- | --- | --- | --- | --- | --- | --- | --- | --- | --- | --- | --- | --- | --- | --- |
| CC(C)(C)NCc1cc(Nc2ccnc3cc(Cl)ccc23)cc(-c2ccc(Cl)cc2)c1O [Compound R24, 4′-chloro-5-[(7-chloro-4-quinolinyl)amino]-3-(1,1-dimethylethylamino)methyl [1,1′-biphenyl]-2-ol] | 0.25 | 100 | completely missing | high level of activity | spectacular effectiveness | dramatic inhibition | effective in preventing viral release | does little to inhibit replicon formation | instability to light | not to induce significant chromosomal instability | > 25 | well tolerated | effective in preventing viral release | 8.5 | effective zero | – | – |
| CC(C)(C)NCc1cc(Nc2ccnc3cc(Cl)ccc23)cc(-c2ccc(Cl)cc2)c1O.Cl.Cl [WR-228,258 2HCl, 4′-chloro-5-[(7-chloro-4-quinolinyl)amino]-3-(1,1-dimethylethylamino)methyl[1,1′-biphenyl]-2-ol dihydrochloride] | – | – | – | – | – | – | – | – | – | – | – | well tolerated | – | – | – | not effective | effective against the parasite based disease at about the same level as the dominant treatment |
